Usually IC50 stands for the point on the concentration scale where inhibition reaches its midpoint.

Experimental findings from patent US12492188B2, “1H-benzo[D]imidazole derivatives as TLR9 inhibitors for the treatment of fibrosis” (BRISTOL-MYERS SQUIBB COMPANY, priority 2020, dated 2025) are described below.

Like-named read-outs stand apart in the source and are kept apart here.

Holding throughout (assay type): cell-based
One experiment deals with T1, human TLR9 (Homo sapiens, UniProt Q9NR96).
T1 construct: host or cells: HEK-Blue cells (HEK293-derived reporter line)
T1 sequence (Q9NR96 26-1032): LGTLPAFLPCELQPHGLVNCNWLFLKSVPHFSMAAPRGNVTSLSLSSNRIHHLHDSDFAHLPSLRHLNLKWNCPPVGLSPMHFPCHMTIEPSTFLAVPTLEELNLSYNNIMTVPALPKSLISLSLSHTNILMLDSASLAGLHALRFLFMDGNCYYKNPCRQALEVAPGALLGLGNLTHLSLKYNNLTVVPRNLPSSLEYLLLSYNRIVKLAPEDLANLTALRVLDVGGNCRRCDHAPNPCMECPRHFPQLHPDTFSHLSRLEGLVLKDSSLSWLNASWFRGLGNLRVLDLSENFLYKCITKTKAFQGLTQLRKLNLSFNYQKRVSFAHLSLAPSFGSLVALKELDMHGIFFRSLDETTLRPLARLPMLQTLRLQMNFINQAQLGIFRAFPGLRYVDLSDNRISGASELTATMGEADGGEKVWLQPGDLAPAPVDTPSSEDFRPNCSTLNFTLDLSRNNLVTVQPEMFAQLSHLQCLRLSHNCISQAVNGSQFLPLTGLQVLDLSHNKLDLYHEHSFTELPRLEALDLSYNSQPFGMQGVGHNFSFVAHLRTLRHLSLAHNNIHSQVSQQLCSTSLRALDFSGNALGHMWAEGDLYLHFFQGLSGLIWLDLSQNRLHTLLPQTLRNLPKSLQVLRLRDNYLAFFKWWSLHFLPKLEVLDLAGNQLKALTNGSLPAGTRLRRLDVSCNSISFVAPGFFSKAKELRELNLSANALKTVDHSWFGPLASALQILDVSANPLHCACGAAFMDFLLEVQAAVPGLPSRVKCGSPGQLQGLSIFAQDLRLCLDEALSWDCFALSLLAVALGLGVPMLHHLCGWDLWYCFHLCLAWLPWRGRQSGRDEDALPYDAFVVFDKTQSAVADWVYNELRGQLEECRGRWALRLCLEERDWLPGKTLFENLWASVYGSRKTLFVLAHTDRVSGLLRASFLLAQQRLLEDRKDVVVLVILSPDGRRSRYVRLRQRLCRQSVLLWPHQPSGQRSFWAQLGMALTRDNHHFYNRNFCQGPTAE
Description: TLR9 inhibition reporter assay (HEK-Blue cells, secreted embryonic alkaline phosphatase reporter). The settings on record: HEK-Blue cells overexpressing human TLR9, stimulated with ODN2006 5 nM. The gist of the method: (§1)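 Read-out is SEAP colour from HEK-Blue Detection medium after 22 h at 37 °C, converted to percent inhibition between agonist-plus-DMSO and reference-inhibitor wells. Receptor-overexpressing HEK-Blue cells received compound over 0.05 nM–50 μM for 30 min before agonist: gardiquimod 7.5 μM for TLR7, R848 15.9 μM for TLR8, ODN2006 5 nM for TLR9.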
A general note: Reporter assays use an easily measured gene product as a stand-in for the process of interest.

In another experiment the target is T2, human TLR7 (Homo sapiens, UniProt Q9NYK1).
T2 construct: host or cells: HEK-Blue cells (HEK293-derived reporter line)
T2 sequence (Q9NYK1 27-1049): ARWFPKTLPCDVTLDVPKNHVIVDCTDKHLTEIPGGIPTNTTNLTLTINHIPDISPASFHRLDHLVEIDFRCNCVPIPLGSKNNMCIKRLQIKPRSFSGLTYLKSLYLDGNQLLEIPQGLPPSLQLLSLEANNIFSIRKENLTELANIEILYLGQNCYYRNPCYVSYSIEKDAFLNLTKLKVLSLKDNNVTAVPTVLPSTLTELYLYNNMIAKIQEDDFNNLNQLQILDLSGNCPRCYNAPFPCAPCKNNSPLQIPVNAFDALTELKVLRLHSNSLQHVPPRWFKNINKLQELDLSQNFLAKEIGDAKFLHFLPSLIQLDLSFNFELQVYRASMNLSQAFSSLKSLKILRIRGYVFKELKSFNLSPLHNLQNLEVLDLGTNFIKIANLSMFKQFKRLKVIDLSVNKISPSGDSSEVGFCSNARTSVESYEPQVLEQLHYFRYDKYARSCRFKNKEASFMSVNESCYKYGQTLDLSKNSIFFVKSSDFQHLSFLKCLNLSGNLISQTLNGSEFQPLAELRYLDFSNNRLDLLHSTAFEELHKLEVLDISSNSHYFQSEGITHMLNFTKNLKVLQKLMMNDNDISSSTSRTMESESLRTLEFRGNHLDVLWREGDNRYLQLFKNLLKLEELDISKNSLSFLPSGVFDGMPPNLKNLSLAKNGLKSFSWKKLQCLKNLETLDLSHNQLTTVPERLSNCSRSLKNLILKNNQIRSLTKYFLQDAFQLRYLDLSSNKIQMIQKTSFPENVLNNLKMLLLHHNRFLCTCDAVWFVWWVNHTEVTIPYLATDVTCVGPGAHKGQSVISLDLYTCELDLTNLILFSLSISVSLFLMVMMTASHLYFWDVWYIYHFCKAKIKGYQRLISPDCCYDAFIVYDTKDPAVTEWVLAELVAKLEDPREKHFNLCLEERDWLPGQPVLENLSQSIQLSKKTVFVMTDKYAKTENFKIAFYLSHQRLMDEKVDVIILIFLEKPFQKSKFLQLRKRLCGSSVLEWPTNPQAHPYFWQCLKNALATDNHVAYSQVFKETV
Kind of experiment: TLR7 inhibition reporter assay (HEK-Blue cells, secreted embryonic alkaline phosphatase reporter). The settings on record: HEK-Blue cells overexpressing human TLR7, stimulated with gardiquimod 7.5 μM; read-out: TLR 7 IC50. The gist of the method:
as §1

The next experiment addresses T3, human TLR8 (Homo sapiens, UniProt Q9NR97).
T3 construct: host or cells: HEK-Blue cells (HEK293-derived reporter line)
T3 sequence (Q9NR97 27-1041): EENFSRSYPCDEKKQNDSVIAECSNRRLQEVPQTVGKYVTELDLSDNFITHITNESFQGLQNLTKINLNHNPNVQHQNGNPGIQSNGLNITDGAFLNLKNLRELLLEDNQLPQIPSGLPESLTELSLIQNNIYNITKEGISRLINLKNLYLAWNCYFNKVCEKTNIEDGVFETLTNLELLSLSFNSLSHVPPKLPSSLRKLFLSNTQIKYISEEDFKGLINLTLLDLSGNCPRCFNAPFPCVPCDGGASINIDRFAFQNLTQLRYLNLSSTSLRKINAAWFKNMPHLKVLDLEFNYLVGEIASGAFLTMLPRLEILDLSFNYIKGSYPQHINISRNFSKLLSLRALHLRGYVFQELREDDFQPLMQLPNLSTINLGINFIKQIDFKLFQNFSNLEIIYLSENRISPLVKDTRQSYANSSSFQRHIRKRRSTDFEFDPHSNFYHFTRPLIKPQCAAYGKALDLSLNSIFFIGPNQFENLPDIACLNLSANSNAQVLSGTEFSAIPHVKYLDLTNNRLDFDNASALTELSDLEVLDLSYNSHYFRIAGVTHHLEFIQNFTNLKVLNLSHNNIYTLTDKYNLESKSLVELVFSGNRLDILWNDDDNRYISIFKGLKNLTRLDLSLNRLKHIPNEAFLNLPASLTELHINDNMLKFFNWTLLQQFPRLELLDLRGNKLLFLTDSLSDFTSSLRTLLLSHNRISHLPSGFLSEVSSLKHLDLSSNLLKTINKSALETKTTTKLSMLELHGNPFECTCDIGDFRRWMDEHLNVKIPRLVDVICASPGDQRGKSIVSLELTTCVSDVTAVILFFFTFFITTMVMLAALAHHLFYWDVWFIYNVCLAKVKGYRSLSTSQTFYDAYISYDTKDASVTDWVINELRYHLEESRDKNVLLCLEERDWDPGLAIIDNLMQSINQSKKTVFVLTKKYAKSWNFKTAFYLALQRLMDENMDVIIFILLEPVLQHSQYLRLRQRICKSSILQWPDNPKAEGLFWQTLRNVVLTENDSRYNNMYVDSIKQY
Description: TLR8 inhibition reporter assay (HEK-Blue cells, secreted embryonic alkaline phosphatase reporter). The following applies: HEK-Blue cells overexpressing human TLR8, stimulated with R848 15.9 μM; read-out: TLR 8 IC50. In short, it runs like this:
as §1

Setting [1] is: 22 hour incubation, reporter readout.

As for `Cc1cc(-c2ccc(CN3CCN(C(C)C)CC3)cc2)cc2c1nc(-c1ccc(S(C)(=O)=O)cc1)n2C` [Example 413, 6-(4-((4-isopropylpiperazin-1-yl)methyl)phenyl)-1,4-dimethyl-2-(4-(methylsulfonyl)phenyl)-1H-benzo[d]imidazole], the IC50 at human TLR9 (setting [1]) was 1900 nM; at human TLR9 (read-out: TLR 9 IC50), 1880 nM; at human TLR7 it was above 50 µM; on human TLR8, 5.4 µM.
As to `Cc1ccc(CN2CCC(c3cc(C)c4nc(-c5ccc(S(C)(=O)=O)cc5)n(C)c4c3)CC2)cn1` [Example 419, 1,4-dimethyl-6-(1-((6-methylpyridin-3-yl)methyl)piperidin-4-yl)-2-(4-(methylsulfonyl)phenyl)-1H-benzo[d]imidazole], the IC50 against human TLR9 (setting [1]) stood at 2100 nM; on human TLR9 (read-out: TLR 9 IC50), 2140 nM; on human TLR7 it was 2.3 µM; on human TLR8, 8.4 µM.
The corresponding values for `CCOP(=O)(OCC)c1ccc(-c2nc3c(C)cc(C4CCN(C5CCN(C(C)C)CC5)CC4)cc3n2C)cc1` [Example 420, diethyl(4-(6-(1′-isopropyl-[1,4′-bipiperidin]-4-yl)-1,4-dimethyl-1H-benzo[d]imidazol-2-yl)phenyl)phosphonate] are 140 nM, 136 nM, above 50 µM and 42.2 µM.
`CCOP(=O)(OCC)c1ccc(-c2nc3c(C)cc(C4CCN(C5CCN(CC(C)C)CC5)CC4)cc3n2C)cc1` [Example 421, diethyl(4-(6-(1′-isobutyl-[1,4′-bipiperidin]-4-yl)-1,4-dimethyl-1H-benzo[d]imidazol-2-yl)phenyl)phosphonate]: the IC50 was 140 nM on human TLR9 (setting [1]), 139 nM on human TLR9 (read-out: TLR 9 IC50), 0.7 µM at human TLR7 and above 50 µM at human TLR8.
The corresponding values for `CCOP(=O)(OCC)c1ccc(-c2nc3c(C)cc(C4CCN(C5CCN(C6CC6)CC5)CC4)cc3n2C)cc1` [Example 422, diethyl(4-(6-(1′-cyclopropyl-[1,4′-bipiperidin]-4-yl)-1,4-dimethyl-1H-benzo[d]imidazol-2-yl)phenyl)phosphonate] are 180 nM, 180 nM, 4 µM and 27.3 µM.
